Literature values in patent US12297406B2, “Method for preparing a composition comprising cetylated fatty acids” (ALESCO S.R.L., priority 2019, dated 2025).

Conditions: European Union food additive E319

acceptable daily intake (ADI): 0.7 mg/kg of body weight
Compound: CC(C)(C)c1cc(O)ccc1O [TBHQ, Tert-butyl-hydroquinone]
